Measured values as given in the NIST ThermoML archive (doi:10.1021/acs.jced.5b01023).
“And” between values parts separate entries of the source, which are not always exact repeats. Equal entries are not always repeated.

Assays:
[1] = refractive index (Na D-line) (dimensionless); xn = mol fraction of the nth substance listed; conditions: 101 kPa, Liquid, Standard Abbe refractometry, x2 = 0
[2] = xn = mol fraction of the nth substance listed; conditions: for viscosity / mass density: 101 kPa, Liquid; for viscosity: Capillary tube (Ostwald / Ubbelohde) method; for mass density: Vibrating tube method
[3] = for surface tension liquid-gas: Wilhelmy plates; for viscosity / mass density: 101 kPa, Liquid; for viscosity: Capillary tube (Ostwald / Ubbelohde) method; for mass density: Vibrating tube method
[4] = refractive index (Na D-line) (dimensionless); conditions: 101 kPa, Liquid, Standard Abbe refractometry

CC(C)O [propan-2-ol] + CC(=O)[O-].CCn1cc[n+](C)c1
[1]
Conditions	refractive index
288.15 K	1.37933
298.15 K	1.37517
308.15 K	1.37093
318.15 K	1.36643
328.15 K	1.36173
338.15 K	1.35682

[2], Wilhelmy plates, x2 = 0
Conditions	surface tension liquid-gas [mN/m]
288.15 K	21.6
298.15 K	21.2
308.15 K	20.5
318.15 K	19.6
328.15 K	18.7
338.15 K	17.4

[2], x2 = 0
Conditions	mass density [kg/m3]	viscosity [mPa·s]
288.15 K	789.18	2.752
298.15 K	780.84	2.018
308.15 K	772.23	1.507
318.15 K	763.27	1.15
328.15 K	753.89	0.895
338.15 K	744.02	0.704

CC(=O)[O-].CCn1cc[n+](C)c1 [1-ethyl-3-methylimidazolium acetate]
Conditions	mass density, [3] [kg/m3]	refractive index, [4]	surface tension liquid-gas, [3]	viscosity, [3] [mPa·s]
278.2 K	–	–	48.1 mN/m	–
288.15 K	1105.2	1.50285	47.7 mN/m	283.8
298.15 K	1099.03	1.50069	47.1 mN/m	139
308.15 K	1092.93	1.49803	46.6 mN/m and 46.1 mN/m	77.32
318.15 K	1086.86	1.49527	46.1 mN/m	47.37
328.15 K	1080.82	1.49266	45.9 mN/m	31.29
338.15 K	1074.83	1.48995	45.4 mN/m	21.85
348.15 K	1068.88	1.48721	45.1 mN/m	16.01

CC(=O)[O-].CCn1cc[n+](C)c1 [1-ethyl-3-methylimidazolium acetate] + CO
surface tension liquid-gas [mN/m], [2], Wilhelmy plate
Conditions	x1 = 0.1	x1 = 0.2	x1 = 0.3	x1 = 0.4	x1 = 0.5	x1 = 0.6	x1 = 0.6999	x1 = 0.8003	x1 = 0.9003	x1 = 1
278.2 K	28.5	32.7	35.9	38.4	40.3	42.1	44.3	45.9	47.6	48.1
288.2 K	28.1	32.1	35.3	38	40	41.6	43.8	45.1	46.9	47.7
298.2 K	27.5	31.6	35	37.5	39.6	41.1	43.3	44.7	46.4	47.1
308.2 K	26.8	31.1	34.5	37.1	39	40.8	42.8	44.2	45.9	46.6
318.2 K	26.3	30.6	33.9	36.5	38.7	40.4	42.4	43.9	45.3	46.1
